# Results as given in BindingDB's records for doi:10.1016/s0014-2999(03)02008-9 (Harvard University, 2003).
# What was measured:
# [1] = molecular target: 5-hydroxytryptamine receptor 2A (Rattus norvegicus, UniProt P14842)
# [2] = molecular target: T1, Alpha-2C adrenergic receptor (Rattus norvegicus, UniProt P22086)
# T1 sequence (P22086 whole entry): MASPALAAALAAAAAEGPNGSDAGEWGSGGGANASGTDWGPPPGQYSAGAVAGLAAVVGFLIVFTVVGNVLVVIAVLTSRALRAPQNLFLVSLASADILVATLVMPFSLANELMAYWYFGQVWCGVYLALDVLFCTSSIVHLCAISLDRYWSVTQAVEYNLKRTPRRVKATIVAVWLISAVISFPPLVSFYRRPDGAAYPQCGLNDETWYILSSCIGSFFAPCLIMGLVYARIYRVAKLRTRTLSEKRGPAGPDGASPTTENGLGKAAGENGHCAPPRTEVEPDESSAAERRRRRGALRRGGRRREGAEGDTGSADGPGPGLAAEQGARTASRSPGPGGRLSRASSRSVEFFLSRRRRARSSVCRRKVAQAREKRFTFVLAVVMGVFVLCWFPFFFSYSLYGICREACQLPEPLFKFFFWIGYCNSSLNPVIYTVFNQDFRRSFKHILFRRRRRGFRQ
# D(2) dopamine receptor = D(2) dopamine receptor (Rattus norvegicus, UniProt P61169)
# D(1A) dopamine receptor = D(1A) dopamine receptor (Rattus norvegicus, UniProt P18901)
# D(1B) dopamine receptor = D(1B) dopamine receptor (Homo sapiens, UniProt P21918)
# [3] = molecular target: T2, Solute carrier family 22 member 2 (Rattus norvegicus, UniProt Q9R0W2)
# T2 sequence (Q9R0W2 whole entry): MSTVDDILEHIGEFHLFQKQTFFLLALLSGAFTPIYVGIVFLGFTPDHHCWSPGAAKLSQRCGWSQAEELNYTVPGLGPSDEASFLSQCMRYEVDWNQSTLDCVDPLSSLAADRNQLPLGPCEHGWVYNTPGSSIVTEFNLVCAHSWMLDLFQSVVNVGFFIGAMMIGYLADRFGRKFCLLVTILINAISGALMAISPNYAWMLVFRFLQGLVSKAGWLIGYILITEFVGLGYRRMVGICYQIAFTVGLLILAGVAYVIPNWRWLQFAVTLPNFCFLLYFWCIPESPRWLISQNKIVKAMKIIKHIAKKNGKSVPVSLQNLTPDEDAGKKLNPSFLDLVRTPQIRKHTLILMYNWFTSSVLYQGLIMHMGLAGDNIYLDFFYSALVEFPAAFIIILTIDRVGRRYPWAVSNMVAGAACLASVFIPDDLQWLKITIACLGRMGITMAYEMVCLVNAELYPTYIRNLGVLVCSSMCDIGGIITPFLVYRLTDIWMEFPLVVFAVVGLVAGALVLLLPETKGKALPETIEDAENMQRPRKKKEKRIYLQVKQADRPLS
# Chain of 5-hydroxytryptamine receptor 2A (P14842 whole entry): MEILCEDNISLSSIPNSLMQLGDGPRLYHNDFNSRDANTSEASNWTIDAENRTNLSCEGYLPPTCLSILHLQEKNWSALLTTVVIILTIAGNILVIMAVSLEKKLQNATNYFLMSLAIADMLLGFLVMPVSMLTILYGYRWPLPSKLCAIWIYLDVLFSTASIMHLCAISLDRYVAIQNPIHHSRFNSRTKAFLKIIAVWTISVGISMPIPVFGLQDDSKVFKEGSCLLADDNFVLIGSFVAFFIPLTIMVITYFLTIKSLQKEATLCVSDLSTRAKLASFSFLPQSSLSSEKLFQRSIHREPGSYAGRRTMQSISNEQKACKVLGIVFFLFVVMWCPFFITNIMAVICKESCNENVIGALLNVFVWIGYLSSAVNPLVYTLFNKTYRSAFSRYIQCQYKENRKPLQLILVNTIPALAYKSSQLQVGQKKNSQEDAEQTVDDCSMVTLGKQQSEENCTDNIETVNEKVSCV
# Chain of D(2) dopamine receptor (P61169 whole entry): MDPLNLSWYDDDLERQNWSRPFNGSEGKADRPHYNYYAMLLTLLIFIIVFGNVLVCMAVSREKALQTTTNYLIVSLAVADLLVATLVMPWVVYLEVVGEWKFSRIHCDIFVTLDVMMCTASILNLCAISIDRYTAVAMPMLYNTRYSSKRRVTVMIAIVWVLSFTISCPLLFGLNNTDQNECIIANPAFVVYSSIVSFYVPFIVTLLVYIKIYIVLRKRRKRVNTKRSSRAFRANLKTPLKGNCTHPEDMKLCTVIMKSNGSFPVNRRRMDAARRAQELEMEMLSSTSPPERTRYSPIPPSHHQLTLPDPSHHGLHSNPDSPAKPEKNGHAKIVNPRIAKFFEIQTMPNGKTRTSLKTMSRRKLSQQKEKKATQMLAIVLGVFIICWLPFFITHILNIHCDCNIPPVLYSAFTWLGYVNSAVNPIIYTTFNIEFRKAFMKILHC
# Chain of D(1A) dopamine receptor (P18901 whole entry): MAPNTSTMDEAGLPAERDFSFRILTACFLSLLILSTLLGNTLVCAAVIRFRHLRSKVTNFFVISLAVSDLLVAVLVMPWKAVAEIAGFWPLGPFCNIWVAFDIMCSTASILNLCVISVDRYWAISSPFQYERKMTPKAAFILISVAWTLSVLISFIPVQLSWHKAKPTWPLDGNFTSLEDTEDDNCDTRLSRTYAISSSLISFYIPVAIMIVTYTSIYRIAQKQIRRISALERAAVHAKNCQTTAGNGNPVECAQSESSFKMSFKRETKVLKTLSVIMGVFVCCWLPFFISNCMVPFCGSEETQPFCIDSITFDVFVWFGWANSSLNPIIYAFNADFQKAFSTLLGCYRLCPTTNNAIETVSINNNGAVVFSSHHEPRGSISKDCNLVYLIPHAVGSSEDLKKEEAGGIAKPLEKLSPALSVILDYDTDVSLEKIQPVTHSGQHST
# Chain of D(1B) dopamine receptor (P21918 whole entry): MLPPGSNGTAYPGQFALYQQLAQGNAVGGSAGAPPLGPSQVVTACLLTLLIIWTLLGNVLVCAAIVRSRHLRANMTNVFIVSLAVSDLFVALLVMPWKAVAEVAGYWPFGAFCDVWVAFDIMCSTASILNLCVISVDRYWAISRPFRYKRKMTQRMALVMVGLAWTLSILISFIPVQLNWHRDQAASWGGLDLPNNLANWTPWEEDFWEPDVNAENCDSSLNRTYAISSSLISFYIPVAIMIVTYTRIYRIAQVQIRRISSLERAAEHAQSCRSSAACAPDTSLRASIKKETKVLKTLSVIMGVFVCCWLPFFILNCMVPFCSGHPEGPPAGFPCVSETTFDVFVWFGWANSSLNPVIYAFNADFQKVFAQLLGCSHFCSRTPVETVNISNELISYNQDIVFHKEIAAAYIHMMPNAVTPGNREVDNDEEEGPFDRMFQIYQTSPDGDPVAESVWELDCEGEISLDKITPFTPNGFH
Ki [1] [nM],Ki [2] [nM],Ki (D(2) dopamine receptor) [nM],Ki (D(1A) dopamine receptor) [nM],Ki (D(1B) dopamine receptor) [nM],Ki [3] [nM],SMILES
3000,632,,,,,C=CCN1CCc2cc(O)c(O)cc2C(c2ccccc2)C1 (stereo not drawn)
266,295,920,1.18,7.56,,Cc1cccc([C@H]2CN(C)CCc3c2cc(O)c(O)c3Cl)c1
> 10000,248,,,,,Oc1cc2c(cc1O)C(c1ccccc1)CNCC2 (racemic) [(+/-)-SKF-38393]
1610,558,,,,,C=CCN1CCc2c(cc(O)c(O)c2Cl)C(c2ccccc2)C1 (racemic) [SKF 82958]
,632,2140,21.3,,,Cc1cccc([C@H]2CN(C)CCc3c2cc(O)c(O)c3Cl)c1 [MCL-201]
88.6,,515,0.49,1.53,3000,Cc1cccc([C@@H]2CN(C)CCc3c2cc(O)c(O)c3Cl)c1 [MCL-202]
224,461,440,0.19,2.47,,Cc1cccc([C@@H]2CN(C)CCc3c2cc(O)c(O)c3Br)c1 [MCL-203]
598,709,83.8,0.11,12,,C=CCN1CCc2c(cc(O)c(O)c2Br)C(c2cccc(C)c2)C1 (stereo not drawn) [MCL-204]
1300,338,1070,4.41,13.7,,Cc1cccc(C2CNCCc3c2cc(O)c(O)c3Br)c1 (stereo not drawn) [MCL-205]
147,250,362,1.93,3.96,,Cc1ccc(C2CN(C)CCc3c2cc(O)c(O)c3Cl)cc1 (stereo not drawn) [MCL-206]
1200,240,5000,0.6,0.88,,Cc1cccc(C2CNCCc3c2cc(O)c(O)c3Cl)c1 (stereo not drawn) [MCL-209]
995,877,119,0.52,9.94,,C=CCN1CCc2c(cc(O)c(O)c2Cl)C(c2cccc(C)c2)C1 (stereo not drawn) [MCL-210]
68.9,365,1050,8.66,,,CN1CCc2c(cc(O)c(O)c2Br)[C@H](c2cccc(C(F)(F)F)c2)C1 [MCL-211]
124,493,1030,19.3,4.36,,Cc1ccc(C2CN(C)CCc3c2cc(O)c(O)c3Br)cc1 (stereo not drawn) [MCL-212]
977,1090,1700,128,,,C=CCN1CCc2c(cc(O)c(O)c2Br)C(c2ccc(C)cc2)C1 (stereo not drawn) [MCL-213]
45.8,186,409,1.1,3.42,,Cc1ccccc1C1CN(C)CCc2c1cc(O)c(O)c2Br (stereo not drawn) [MCL-214]
742,414,239,37.1,,,C=CCN1CCc2c(cc(O)c(O)c2Br)C(c2ccccc2C)C1 (stereo not drawn) [MCL-215]
398,133,19.5,1.81,1.95,,Cc1ccccc1C1CNCCc2c1cc(O)c(O)c2Br (stereo not drawn) [MCL-216]
992,776,> 10000,1240,,,Oc1cc2c(c(Br)c1O)CCNC[C@H]2c1cccc(C(F)(F)F)c1 [MCL-218]
,,,> 10000,,,Cc1cccc([C@@H]2CN(C)CCc3c(Cl)cc(O)cc32)c1 [MCL-230A]
70.6,66.6,,0.46,2.32,,Cc1ccccc1C1CN(C)CCc2c1cc(O)c(O)c2Cl (stereo not drawn) [NSC_0]
995,509,,,,,Oc1cc2c(c(Cl)c1O)CCNCC2c1ccccc1 (stereo not drawn) [NSC_1218]
10.8,208,,,,,CN1CCc2cc(Cl)c(O)cc2C(c2ccccc2)C1 (stereo not drawn) [NSC_5018]

SMILES,Ki [1] [nM],Ki [2] [nM],Ki (D(2) dopamine receptor) [nM],Ki (D(1A) dopamine receptor) [nM],Ki (D(1B) dopamine receptor) [nM],Ki [3] [nM]
C=CCN1CCc2c(cc(O)c(O)c2Br)C(c2ccccc2C(F)(F)F)C1 (stereo not drawn) [MCL-217],> 10000,> 10000,> 10000,> 10000,,
